Results from patent publication US6602888B2, “Use of α1C specific compounds to treat benign prostatic hyperplasia” (Synaptic Pharmaceutical Corporation, priority 1992, dated 2003).
Read-outs that look alike come from different tables or passages of the source.

How the values were obtained:
[1] = target: T1, human α1C adrenergic receptor (Homo sapiens, UniProt P35348); assay: Radioligand binding, [3H]prazosin, cloned human α1C adrenergic receptor
T1 construct: The entire coding region of α1C (1401 bp); expressed in transfected cells
T1 sequence (P35348 1-466): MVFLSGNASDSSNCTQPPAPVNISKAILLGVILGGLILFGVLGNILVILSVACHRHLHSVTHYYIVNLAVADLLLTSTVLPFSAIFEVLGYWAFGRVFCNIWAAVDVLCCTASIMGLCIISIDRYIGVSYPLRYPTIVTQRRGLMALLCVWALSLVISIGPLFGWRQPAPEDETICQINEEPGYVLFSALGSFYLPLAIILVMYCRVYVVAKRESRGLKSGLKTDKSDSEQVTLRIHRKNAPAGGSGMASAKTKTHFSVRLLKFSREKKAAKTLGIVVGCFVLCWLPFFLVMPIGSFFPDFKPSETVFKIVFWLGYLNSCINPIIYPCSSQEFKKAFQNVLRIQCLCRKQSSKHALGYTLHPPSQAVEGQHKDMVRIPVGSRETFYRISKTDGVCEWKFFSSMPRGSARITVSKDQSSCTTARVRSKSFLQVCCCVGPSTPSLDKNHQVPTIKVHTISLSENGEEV
Excerpt: The construct involved ligating three partial overlapping fragments: a 5′ 0.6 kb HincII genomic clone, a central 1.8 EcoRI hippocampal cDNA clone, and a 3′ 0.6 Kb PstI genomic clone. The hippocampal cDNA fragment overlaps with the 5′ and 3′ genomic clones so that the HincII and PstI sites at the 5′ and 3′ ends of the cDNA clone, respectively, were utilized for ligation. This full-length clone was cloned into the KpnI site of the expression vector, using the 5′ and 3′ KpnI sites of the fragment, derived from vector (i.e., pBluescript) and 3′-untranslated sequences, respectively. Stable cell lines were selected as described above.

[2] = target: T2, human α2B adrenergic receptor (Homo sapiens, UniProt P18089); assay: Competition binding, [3H]rauwolscine, α2B receptor; details: for Ki: read-out: Alpha-2 Adrenergic a2b (pK1) (converted)
T2 sequence (P18089 1-450): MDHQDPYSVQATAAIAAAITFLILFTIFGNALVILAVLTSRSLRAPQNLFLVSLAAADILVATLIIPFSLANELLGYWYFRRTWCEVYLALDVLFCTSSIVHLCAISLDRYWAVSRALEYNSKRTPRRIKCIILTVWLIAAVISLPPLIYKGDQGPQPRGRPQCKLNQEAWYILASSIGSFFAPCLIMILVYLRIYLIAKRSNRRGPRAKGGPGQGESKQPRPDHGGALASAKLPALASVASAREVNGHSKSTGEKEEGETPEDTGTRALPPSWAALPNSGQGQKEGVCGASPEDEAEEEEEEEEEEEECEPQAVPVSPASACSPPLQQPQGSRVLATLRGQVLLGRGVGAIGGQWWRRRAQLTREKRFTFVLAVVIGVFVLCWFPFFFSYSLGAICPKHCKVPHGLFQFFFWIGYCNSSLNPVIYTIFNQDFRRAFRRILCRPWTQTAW
Protocol: To determine the potency of α1 antagonists at the α2 receptors, LM(tk−) cell lines stably transfected with the genes encoding the α2A, α2B, and α2C receptors were used. The cell line expressing the α2A receptor is designated L-α2A, and was deposited on Nov. […] The cell line expressing the α2B receptor is designated L-NGC-α2B, and was deposited on Oct. […] The cell line expressing the α2C receptor is designated L-α2C, and was deposited on Nov. […] Cell lysates were prepared as described above (see Radioligand Binding Assays), and suspended in 25 mM glycylglycine buffer (pH 7.6 at room temperature).

[3] = target: T3, human histamine H1 receptor (Homo sapiens, UniProt P35367); assay: [3H]mepyramine binding, histamine H1 receptor; details: for Ki: read-out: Histamine H1 (pK1) (converted)
T3 construct: host or cells: COS-7, transient, DEAE-dextran
T3 sequence (P35367 whole entry): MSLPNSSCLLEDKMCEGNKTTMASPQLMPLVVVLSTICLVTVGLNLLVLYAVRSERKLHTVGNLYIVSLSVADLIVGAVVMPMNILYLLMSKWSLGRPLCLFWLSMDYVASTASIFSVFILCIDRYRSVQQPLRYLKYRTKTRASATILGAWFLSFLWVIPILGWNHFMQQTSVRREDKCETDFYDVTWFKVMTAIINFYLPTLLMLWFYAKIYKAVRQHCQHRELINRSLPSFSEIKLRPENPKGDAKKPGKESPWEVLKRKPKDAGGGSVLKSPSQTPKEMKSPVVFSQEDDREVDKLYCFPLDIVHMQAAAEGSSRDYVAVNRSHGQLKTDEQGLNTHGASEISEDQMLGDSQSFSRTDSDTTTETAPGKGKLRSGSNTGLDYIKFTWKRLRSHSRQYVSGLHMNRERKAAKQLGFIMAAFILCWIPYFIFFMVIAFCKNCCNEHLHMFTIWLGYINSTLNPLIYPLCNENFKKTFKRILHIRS
Excerpt: The coding sequence of the human histamine H1 receptor, homologous to the bovine H1 receptor, was obtained from a human hippocampal cDNA library, and was cloned into the eukaryotic expression vector pCEXV-3. The plasmid DNA for the H1 receptor is designated pcEXV-H1, and was deposited on Nov. […] This construct was transfected into COS-7 cells by the DEAE-dextran method.

human 5HT1Dβ receptor = target: T4, human 5HT1Dβ receptor (Homo sapiens, UniProt P28222); assay: [3H]serotonin competition binding, 5HT1Dβ receptor
T4 construct: host or cells: LM(tk-) clonal cell line Ltk-11
T4 sequence (P28222 whole entry): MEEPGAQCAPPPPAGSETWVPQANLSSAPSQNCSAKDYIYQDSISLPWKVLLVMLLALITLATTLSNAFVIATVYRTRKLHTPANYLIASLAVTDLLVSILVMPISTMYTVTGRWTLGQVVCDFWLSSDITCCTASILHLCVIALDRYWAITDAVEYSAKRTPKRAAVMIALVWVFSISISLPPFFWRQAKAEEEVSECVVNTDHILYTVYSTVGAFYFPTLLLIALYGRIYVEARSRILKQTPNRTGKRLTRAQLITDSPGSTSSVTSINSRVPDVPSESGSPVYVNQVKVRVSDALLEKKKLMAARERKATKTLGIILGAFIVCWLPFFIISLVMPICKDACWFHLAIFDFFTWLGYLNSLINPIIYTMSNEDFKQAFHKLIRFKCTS
Protocol: (§1) 5HT1Dα, 5HT1Dβ, 5HT1E, 5HT1F Receptors: The cell lysates of LM(tk−) clonal cell line stably transfected with the genes encoding each of these 5HT receptor-subtypes were prepared as described above. The cell line for the 5HT1Dα receptor, designated as Ltk-8-30-84, was deposited on Apr. […] The cell for the 5HT1Dβ receptor, designated as Ltk-11, was deposited on Apr. […] The cell line for the 5HT1E receptor, designated 5 HT1E-7, was deposited on Nov. […] The cell line for the 5HT1F receptor, designated L-5-HT1F, was deposited on Dec. […] These preparations were suspended in 50 mM Tris-HCl buffer (pH 7.4 at 37° C.) containing 10 mM MgCl2, 0.2 mM EDTA, 10 μM pargyline, and 0.1% ascorbate.

human 5HT1E receptor = target: T5, human 5HT1E receptor (Homo sapiens, UniProt P28566); assay: [3H]serotonin competition binding, 5HT1E receptor
T5 construct: host or cells: LM(tk-) clonal cell line 5HT1E-7
T5 sequence (P28566 whole entry): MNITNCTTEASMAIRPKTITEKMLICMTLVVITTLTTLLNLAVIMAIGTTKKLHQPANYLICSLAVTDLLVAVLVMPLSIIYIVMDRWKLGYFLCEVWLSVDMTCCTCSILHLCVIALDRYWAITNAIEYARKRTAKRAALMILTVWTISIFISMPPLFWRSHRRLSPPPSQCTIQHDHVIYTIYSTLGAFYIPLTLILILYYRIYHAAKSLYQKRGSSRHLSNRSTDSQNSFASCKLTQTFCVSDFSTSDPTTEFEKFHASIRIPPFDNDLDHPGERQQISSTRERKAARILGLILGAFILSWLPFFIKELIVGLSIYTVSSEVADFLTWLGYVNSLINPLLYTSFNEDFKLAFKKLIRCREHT
Protocol: as §1

[4] = target: T6, human α1A adrenergic receptor (Homo sapiens, UniProt P25100); assay: Radioligand binding, [3H]prazosin, cloned human α1A adrenergic receptor
T6 sequence (P25100 1-572): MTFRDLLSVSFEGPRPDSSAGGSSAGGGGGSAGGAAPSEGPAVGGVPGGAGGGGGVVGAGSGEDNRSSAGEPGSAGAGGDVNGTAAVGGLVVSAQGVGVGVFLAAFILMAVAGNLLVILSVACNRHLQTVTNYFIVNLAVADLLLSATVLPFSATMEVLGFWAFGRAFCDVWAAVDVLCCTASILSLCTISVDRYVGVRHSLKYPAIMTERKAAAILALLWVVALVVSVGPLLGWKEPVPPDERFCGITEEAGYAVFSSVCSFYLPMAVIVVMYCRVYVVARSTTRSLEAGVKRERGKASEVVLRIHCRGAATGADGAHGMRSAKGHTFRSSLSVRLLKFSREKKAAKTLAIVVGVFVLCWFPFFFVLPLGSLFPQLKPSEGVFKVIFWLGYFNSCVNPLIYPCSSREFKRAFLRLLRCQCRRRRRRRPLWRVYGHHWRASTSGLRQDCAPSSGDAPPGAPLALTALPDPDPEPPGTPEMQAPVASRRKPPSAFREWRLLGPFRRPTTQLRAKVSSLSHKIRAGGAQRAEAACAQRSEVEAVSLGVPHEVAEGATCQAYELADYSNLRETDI

[5] = Table 2, cloned human receptor, read-out: Serotonin 5HT1Db (pK1)
[6] = Table 2, cloned human receptor, read-out: Serotonin 5HT1E (pK1)

Compound	Alpha-1 Adrenergic a1C (pK1) ([1]; Table 2, cloned human receptor)	Ki ([2]; Table 2, cloned human receptor) [nM]	Ki ([3]; Table 2, cloned human receptor) [nM]	Alpha-1 Adrenergic a1A (pK1) ([4]; Table 2, cloned human receptor)	Human Alpha-1 Adrenergic (pK1) a1C ([1]; Table 1, cloned human receptor)	Alpha-2 Adrenergic a2b (pK1) ([2]; Table 2, cloned human receptor)	Histamine H1 (pK1) ([3]; Table 2, cloned human receptor)	Serotonin 5HT1Db (pK1) (human 5HT1Dβ receptor; Table 2, cloned human receptor)	Serotonin 5HT1E (pK1) (human 5HT1E receptor; Table 2, cloned human receptor)	further results
COc1ccc(CCNCC2CCc3ccccc3C2)cc1 (stereo not drawn) [Compound 11, 2-[(4-Methoxyphenethyl)aminomethyl]-1,2,3,4-tetrahydronaphthalene]	8.36	126	1820	6.81						Ki ([1]; Table 1, cloned human receptor, read-out: Human Alpha-1 Adrenergic (pK1) a1C (converted)): 4.37 nM; binding affinity at α1C receptors relative to binding affinities at other receptors ([1]; versus the other receptors of Table 2): greater than ten-fold higher; Ki (human 5HT1Dβ receptor): > 1000 nM; Ki (human 5HT1E receptor): > 10000 nM; Ki [4]: 155 nM
O=C(CCCN1CCC(NC(=O)c2ccccc2)CC1)c1ccc(Cl)cc1 [Compound 7]	8.42			6.82	8.42	6.07	7.59	<5.0	<5.0	
COc1ccccc1N1CCN(CCCNc2c(C)c(=O)n(C)c(=O)n2C)CC1 [5-Methyl-Urapidil, 5-methylurapidil, reference compound]	8.35			7.79	8.35	7.38	5.16	6.82		
O=C(NC1CCN(CCc2c[nH]c3ccccc23)CC1)c1ccccc1 [Indoramin, reference compound]		1910	42.7							selectivity for the human α1C receptor relative to the other human α-adrenergic receptors ([1]; cloned human receptors): slightly selective; Ki (human 5HT1Dβ receptor; [5]): > 1000 nM; Ki (human 5HT1E receptor; [6]): > 10000 nM
C=Cc1sc2ccc(Cl)c3c2c1CN(C)CC3 [SKF-104856, 7-Chloro-2-ethenyl-3,4,5,6-tetrahydro-4-methylthieno[4,3,2-ef][3]benzazepine, reference compound]	7.60	3.24	2570		7.60					Ki (human 5HT1Dβ receptor; [5]): > 100 nM; Ki (human 5HT1E receptor; [6]): > 1000 nM
O=C(CCCN1CCC(NC(=O)c2ccccc2)CC1)c1ccccc1 [Compound 9]	7.83			6.12	7.83	5.69	7.29	<6.0	<5.0	
4-fluoro-4-(8-fluoro-1,3,4,5-tetrahydro-2H-pyrido[4,3-b]indol-2-yl)butyrophenone hydrochloride [Compound A-30360, reference compound]								<6.0	<5.0	Alpha-1 Adrenergic a1C (pK1) [1]: 8.52; Human Alpha-1 Adrenergic (pK1) a1C [1]: 8.52; Alpha-2 Adrenergic a2b (pK1) [2]: 6.37; Histamine H1 (pK1) [3]: 6.03; Alpha-1 Adrenergic a1A (pK1) [4]: 7.49
COC(=O)C1=C(C)NC(C)=C(C(=O)OCCCN2CCC(c3ccccc3)(c3ccccc3)CC2)C1c1ccc([N+](=O)[O-])cc1.Cl (stereo not drawn) [Compound 8, 2,6-Dimethyl-4-(4-nitrophenyl)-1,4-dihydropyridine-3,5-dicarboxylic acid [3-(4,4-diphenylpiperidin-1-yl)propyl] ester methyl ester hydrochloride]			214	6.52		6.12				Alpha-1 Adrenergic a1C (pK1) [1]: 8.48; Human Alpha-1 Adrenergic (pK1) a1C [1]: 8.48; Ki (human 5HT1Dβ receptor): > 10000 nM; Ki (human 5HT1E receptor): > 10000 nM
